Results on 8 compounds are retold here after ChEMBL document CHEMBL1201862, “PubChem BioAssay data set” (2004).

The structures appear in SMILES notation.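 These data come from cells grown in 96-well plates and exposed to compound for 48 hours at five concentrations. The concentration for 50% growth inhibition is given as GI50.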 Active and inactive are the calls of the source. Cut-off read from the data, not from the text of the source: active = GI50 up to about 1.1 µM and inactive = higher. Some results are limits rather than exact numbers.

Among the test systems are SR; UO-31; SK-MEL-2; UACC-62; MOLT-4; TK-10; HOP-62; Malme-3M; KM12; HCT-15; HT-29; COLO 205; PC-3; A498; IGROV-1; CCRF-CEM; HCT-116; SNB-75; NCI/ADR-RES; M14.
Experiment in all cases: NCI-60 cell line screen, 48 h

`S=C(/N=c1/sc(Nc2ccccc2)nc2sc3c(c12)CCCC3)Nc1ccccc1`: the GI50 in the assay on SR, with UO-31, with SK-MEL-2, with UACC-62, with MOLT-4 and with TK-10 was > 62.5 µM (inactive) each time. For the same compound, the GI50 in the assay with HOP-62 is > 62.5 µM (inactive); with Malme-3M, > 62.5 µM (inactive); in the assay on KM12, > 62.5 µM (inactive); in the assay on HCT-15, greater than 62.5 µM; in the assay on HT-29, > 62.5 µM (inactive); with COLO 205 it was > 62.5 µM (inactive). The GI50 in the assay on PC-3, in the assay with A498, with IGROV-1, with CCRF-CEM and in the assay on HCT-116 was > 62.5 µM (inactive) each time.

With `S=C1NCCN1C(=S)NC1CCCCC1`, the GI50 with SR was 35.8 µM (inactive); in the assay on UO-31, 26.7 µM (inactive); in the assay with SK-MEL-2, 34.8 µM (inactive); in the assay with UACC-62 it was 43.7 µM (inactive); in the assay with SNB-75 it was 19 µM (inactive); in the assay on MOLT-4 it was 21.1 µM (inactive). Besides, the GI50 with TK-10 was 27.6 µM (inactive); in the assay on HOP-62, 37.6 µM (inactive); in the assay with Malme-3M it was 20.8 µM (inactive); in the assay on KM12, 24.4 µM (inactive); with HCT-15, 29 µM; in the assay with NCI/ADR-RES, 29.2 µM (inactive). The GI50 in the assay on HT-29 is 21.8 µM (inactive); with COLO 205, 27 µM (inactive); with A498, 18.8 µM (inactive); with IGROV-1 it was 68.1 µM (inactive); in the assay with CCRF-CEM, 45.2 µM (inactive); in the assay with HCT-116 it was 30.3 µM (inactive). Further, the GI50 in the assay on M14 is 22.1 µM (inactive).

With `Cc1c(Cl)cccc1NC(=O)/C(Cl)=C(\Cl)C(=O)O`, the GI50 in the assay with SR is 5.26 µM (inactive); in the assay on UO-31, 18.7 µM (inactive); in the assay on SK-MEL-2, 19.8 µM (inactive); in the assay on UACC-62 it was 13.2 µM (inactive); in the assay with SNB-75, 18.7 µM (inactive); in the assay on MOLT-4, 7.43 µM (inactive). Moreover, the GI50 with TK-10 was 20.9 µM (inactive); in the assay with HOP-62, 31.8 µM (inactive); with Malme-3M, 17.8 µM (inactive); in the assay with KM12, 17.3 µM (inactive); in the assay on HCT-15 it was 16.4 µM; in the assay on HT-29, 19.2 µM (inactive). For the same compound, the GI50 in the assay on COLO 205 was 9.4 µM (inactive); with A498, 45.1 µM (inactive); in the assay on IGROV-1 it was 19.5 µM (inactive); in the assay on CCRF-CEM, 4.14 µM (inactive); with HCT-116 it was 14.2 µM (inactive); with M14, 16.1 µM (inactive).

Turning to `C=C[C@]1(C)CCC2=C(CCC3C2(C)CCC[C@]3(C)CO)C1` (some centres not stated), the GI50 was 26.8 µM (inactive) in the assay on SR; 74 µM (inactive) in the assay on UO-31; 45.9 µM (inactive) in the assay on SK-MEL-2; 76.9 µM (inactive) with UACC-62; 61.5 µM (inactive) in the assay on SNB-75; 24.3 µM (inactive) in the assay with MOLT-4. Also, the GI50 in the assay on TK-10 is > 100 µM (inactive); in the assay with HOP-62, > 100 µM (inactive); in the assay on Malme-3M, > 100 µM (inactive); in the assay on KM12, 38.4 µM (inactive); in the assay on HCT-15, 33 µM; with HT-29, 24.1 µM (inactive). Also, the GI50 in the assay with COLO 205 is 38.4 µM (inactive); in the assay with A498 it was > 100 µM (inactive); in the assay on IGROV-1, > 100 µM (inactive); in the assay on CCRF-CEM, 33 µM (inactive); in the assay with HCT-116 it was 35.6 µM (inactive); in the assay with M14, 75.5 µM (inactive).

For the compound `Cc1c(-c2ccccc2)c(=O)oc2ccc(Cl)cc12`, the GI50 in the assay on SR is > 100 µM (inactive); with UO-31 it was > 100 µM (inactive); with SK-MEL-2, > 100 µM (inactive); in the assay on UACC-62 it was 59.8 µM (inactive); in the assay with SNB-75, 16.1 µM (inactive); in the assay with MOLT-4, > 100 µM (inactive). The GI50 with TK-10 is 33.3 µM (inactive); with HOP-62 it was 27.9 µM (inactive); in the assay on Malme-3M, 99.3 µM (inactive); with KM12 it was > 100 µM (inactive); in the assay with HCT-15 it was greater than 100 µM; with HT-29, > 100 µM (inactive). In addition, the GI50 with COLO 205 is > 100 µM (inactive); in the assay on A498 it was > 100 µM (inactive); with IGROV-1, > 100 µM (inactive); in the assay on CCRF-CEM, > 100 µM (inactive); with HCT-116, 38.1 µM (inactive); in the assay with M14, 26.7 µM (inactive).

In the case of `O=C1C(Cl)=C(NCCN2CCOCC2)C(=O)c2ncccc21`, the GI50 with UO-31 was 1.65 µM (inactive); in the assay with UACC-62, 1.33 µM (inactive); in the assay on SNB-75 it was 1.35 µM (inactive); with MOLT-4, 1.51 µM (inactive); with TK-10, 1.96 µM (inactive); with HOP-62, 2.12 µM (inactive). Further, the GI50 is 1.71 µM (inactive) in the assay on Malme-3M; 1.73 µM (inactive) in the assay on KM12; 1.91 µM with HCT-15; 2.96 µM (inactive) in the assay on HT-29; 2.59 µM (inactive) with PC-3; 2.97 µM (inactive) in the assay with A498. For the same compound, the GI50 in the assay with IGROV-1 was 1.97 µM (inactive); in the assay with CCRF-CEM it was 0.394 µM (active); in the assay with HCT-116 it was 1.82 µM (inactive); in the assay on M14 it was 1.61 µM (inactive).

As for `O=C(/C=C\c1ccccc1O)c1ccc(O)cc1O`, the GI50 in the assay with SR was > 100 µM (inactive); with UO-31, > 100 µM (inactive); in the assay with SK-MEL-2 it was > 100 µM (inactive); in the assay with UACC-62, > 100 µM (inactive); in the assay with SNB-75 it was 0.0128 µM (active); with MOLT-4 it was > 100 µM (inactive). The GI50 in the assay with TK-10 is > 100 µM (inactive); with HOP-62, > 100 µM (inactive); with Malme-3M it was > 100 µM (inactive); in the assay on KM12, > 100 µM (inactive); with HCT-15 it was greater than 100 µM; in the assay with HT-29, > 100 µM (inactive). Further, the GI50 with COLO 205 is 28.6 µM (inactive); with A498, > 100 µM (inactive); with IGROV-1, > 100 µM (inactive); in the assay on CCRF-CEM it was 87.7 µM (inactive); in the assay with HCT-116 it was > 100 µM (inactive); in the assay on M14, > 100 µM (inactive).

In the case of `N#CCc1ccc(C(C#N)/C(CCCC(=O)Nc2cccc([N+](=O)[O-])c2)=N\NC(=O)NN)cc1` (configuration not stated), the GI50 in the assay on SR, with UO-31, in the assay on SK-MEL-2, with UACC-62, in the assay with SNB-75 and with MOLT-4 was > 100 µM (inactive) in each case. Besides, the GI50 in the assay with TK-10 was > 100 µM (inactive); in the assay with HOP-62, > 100 µM (inactive); in the assay with Malme-3M it was > 100 µM (inactive); with KM12 it was > 100 µM (inactive); with HCT-15, greater than 100 µM; in the assay on HT-29 it was > 100 µM (inactive). Besides, the GI50 with COLO 205, in the assay on A498, in the assay on IGROV-1, in the assay with CCRF-CEM, in the assay with HCT-116 and with M14 was > 100 µM (inactive) throughout.
